Patent publication US12410163B2, “Compounds as GLP-IR agonists” (Terns Pharmaceuticals, Inc., priority 2022, dated 2025)

Test: Passive permeability and efflux ratio (Caco-2)
Type: in vitro ADME
Conditions: human; for efflux ratio at 120 min, 5 μM: pH 7.4, Caco-2, efflux ratio = Papp (B-to-A)/Papp (A-to-B), read-out: ER; for Papp A→B at 120 min, 5 μM: Caco-2, 5 μM, pH 7.4, 120 minutes
Method: Caco-2 cells (clone C2BBe1) are obtained, e.g., from American Type Culture Collection (Manassas, VA). Cell monolayers are grown to confluence on collagen-coated, microporous membranes in 12-well assay plates. The permeability assay buffer is Hanks' balanced salt solution containing 10 mM HEPES and 15 mM glucose at a pH of 7.4. The buffer in the receiver chamber also contains 1% bovine serum albumin. The dosing solution concentration is 5 μM of test article in the assay buffer. Cell monolayers are dosed on the apical side (A-to-B) or basolateral side (B-to-A) and incubated at 37° C. with 5% CO2 in a humidified incubator. Samples are taken from the donor and receiver chambers at 120 minutes. Each determination is performed in duplicate. The flux of lucifer yellow is also measured post-experimentally for each monolayer to ensure no damage is inflicted to the cell monolayers during the flux period. All samples are assayed by LC-MS/MS using electrospray ionization. The apparent permeability (Papp) and percent recovery were calculated as follows: Papp=(dCr/dt)×Vr/(A×CA) (1) Percent Recovery=100×((Vr×Cr^final)+(Vd×Cd^final))/(Vd×CN) (2), where, dCr/dt is the slope of the cumulative receiver concentration versus time in μM s^−1; Vr is the volume of the receiver compartment in cm^3; Vd is the volume of the donor compartment in cm^3; A is the area of the insert (1.13 cm^2 for 12-well); CA is the average of the nominal dosing concentration and the measured 120-minute donor concentration in μM; CN is the nominal concentration of the dosing solution in μM; Cr^final is the cumulative receiver concentration in μM at the end of the incubation period; Cd^final is the concentration of the donor in μM at the end of the incubation period. Efflux ratio (ER) is defined as Papp (B-to-A)/Papp (A-to-B). Rat Pharmacokinetics
Caco-2 cells (clone C2BBe1) were obtained from American Type Culture Collection (Manassas, VA). Cell monolayers were grown to confluence on collagen-coated, microporous membranes in 12-well assay plates. Details of the plates and their certification are shown below. The permeability assay buffer was Hanks' balanced salt solution containing 10 mM HEPES and 15 mM glucose at a pH of 7.4. The buffer in the receiver chamber also contained 1% bovine serum albumin. The dosing solution concentration was 5 μM of test article in the assay buffer. Cell monolayers were dosed on the apical side (A-to-B) or basolateral side (B-to-A) and incubated at 37° C. with 5% CO2 in a humidified incubator. Samples were taken from the donor and receiver chambers at 120 minutes. Each determination was performed in duplicate. The flux of lucifer yellow was also measured post-experimentally for each monolayer to ensure no damage was inflicted to the cell monolayers during the flux period. All samples were assayed by LC-MS/MS using electrospray ionization. The apparent permeability (Papp) and percent recovery were calculated as follows: Papp=(dCr/dt)×Vr/(A×CA) (1) Percent Recovery=100×((Vr×Cr^final)+(Vd×Cd^final))/(Vd×CN) (2), where, dCr/dt is the slope of the cumulative receiver concentration versus time in μM s^−1; Vr is the volume of the receiver compartment in cm^3; Vd is the volume of the donor compartment in cm^3; A is the area of the insert (1.13 cm^2 for 12-well); CA is the average of the nominal dosing concentration and the measured 120-minute donor concentration in μM; CN is the nominal concentration of the dosing solution in μM; Cr^final is the cumulative receiver concentration in μM at the end of the incubation period; Cd^final is the concentration of the donor in μM at the end of the incubation period. Efflux ratio (ER) is defined as Papp (B-to-A)/Papp (A-to-B).

SMILES	efflux ratio at 120 min, 5 μM	Papp A→B at 120 min, 5 μM
CC1(c2ccc(C#N)cc2F)Oc2cccc(N3CCN(Cc4nc5ccc(C(=O)O)cc5n4CC4(C#N)CC4)C4CC43)c2O1 (centres unmarked) [Compound 40, 2-((5-(2-(4-Cyano-2-fluorophenyl)-2-methylbenzo[d][1,3]dioxol-4-yl)-2,5-diazabicyclo[4.1.0]heptan-2-yl)methyl)-1-((1-cyanocyclopropyl)methyl)-1H-benzo[d]imidazole-6-carboxylic Acid]	2.27	17.5 ×10⁻⁶ cm/s
CC1(c2ccc(C#N)cc2F)Oc2cccc(C3CCN(Cc4nc5ccc(C(=O)O)cc5n4Cc4cncs4)CC3)c2O1 (centres unmarked) [Compound 18]	1.31	16.8 ×10⁻⁶ cm/s
N#Cc1ccc(COc2cccc([C@@H]3CCN(Cc4nc5ccc(C(=O)O)cc5n4Cc4cncs4)[C@@H]4C[C@@H]43)n2)c(F)c1 (single isomer, unassigned) [Compound 5, 2-((5-(6-((4-Cyano-2-fluorobenzyl)oxy)pyridin-2-yl)-2-azabicyclo[4.1.0]heptan-2-yl)methyl)-1-(thiazol-5-ylmethyl)-1H-benzo[d]imidazole-6-carboxylic Acid]	1.71	27.9 ×10⁻⁶ cm/s
N#Cc1ccc(COc2cccc(N3CCN(Cc4nc5ccc(C(=O)O)cc5n4Cc4cncs4)[C@@H]4C[C@@H]43)n2)c(F)c1 (single isomer, unassigned) [Compound 1, 2-((5-(6-((4-cyano-2-fluorobenzyl)oxy)pyridin-2-yl)-2,5-diazabicyclo[4.1.0]heptan-2-yl)methyl)-1-(thiazol-5-ylmethyl)-1H-benzo[d]imidazole-6-carboxylic Acid]	2.51	15 ×10⁻⁶ cm/s
